This is an account of results in patent US11897886B2, “Pyrazolo[4,3-d]pyrimidines as antitumor agents” (Duquesne University of the Holy Spirit, priority 2018, dated 2024).

Read-outs that look alike come from different tables or passages of the source.

In one test the test system is NCI/ADR-RES. Briefly: Compound activity in a P-gp overexpressing cell line NCI/ADR-RES. The note with it: for IC50: P-gp overexpressing cell line. The format is cell-based.
A further test concerns OVCAR-8. Briefly: Compound activity in OVCAR-8 cell line. Format: cell-based. The conditions noted are these: for IC50: OVCAR-8, read-out: OVCAR-8 IC50 (nM) ± SD.
Another test deals with MCF-7-TUBB3 β3-tubulin. Briefly: MCF-7-TUBB3 (β3-tubulin) cell activity. The format is cell-based.
In a further test the test system is MIA PaCa-2. Nature of the test: MIA PaCa-2 cell line activity. The format is cell-based. The note with it: Table 2, read-out: MIA PaCa-2 (nM ± SD).
The next test relates to MCF-7 WT. Briefly: MCF-7 WT cell activity. The format is cell-based. The note with it: Homo sapiens, MCF7.
Another test relates to MCF-7/TAX Pgp. Nature of the test: MCF-7/TAX (Pgp) cell activity. The conditions noted are these: for EC50: Homo sapiens, MCF7. Format: cell-based.
The next test concerns the target tubulin (Bos taurus, UniProt P81947+Q6B856). Briefly: Inhibition of [3H]colchicine binding to tubulin.
Where [1] appears, read: Homo sapiens, NCI/ADR-RES, Table 1, read-out: NCl/ADR-RES IC50 (nM) ± SD.
Setting [2] is: Homo sapiens, NCI/ADR-RES, Table 2, read-out: NCI/ADR-RES IC50 (nM) ± SD.

tubulin, sequence (Q6B856 whole entry): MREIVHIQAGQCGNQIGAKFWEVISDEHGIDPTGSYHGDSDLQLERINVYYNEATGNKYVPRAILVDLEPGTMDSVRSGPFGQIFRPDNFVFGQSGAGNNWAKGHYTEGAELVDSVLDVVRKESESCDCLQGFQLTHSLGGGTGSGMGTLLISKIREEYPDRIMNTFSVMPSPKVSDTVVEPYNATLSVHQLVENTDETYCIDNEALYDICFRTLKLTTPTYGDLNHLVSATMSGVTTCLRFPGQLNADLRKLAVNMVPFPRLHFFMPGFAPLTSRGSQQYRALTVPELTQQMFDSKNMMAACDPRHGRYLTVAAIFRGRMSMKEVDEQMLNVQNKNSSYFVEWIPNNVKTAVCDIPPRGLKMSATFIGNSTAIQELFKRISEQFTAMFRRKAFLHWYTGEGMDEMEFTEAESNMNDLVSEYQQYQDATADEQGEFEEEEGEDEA
tubulin, sequence (P81947 whole entry): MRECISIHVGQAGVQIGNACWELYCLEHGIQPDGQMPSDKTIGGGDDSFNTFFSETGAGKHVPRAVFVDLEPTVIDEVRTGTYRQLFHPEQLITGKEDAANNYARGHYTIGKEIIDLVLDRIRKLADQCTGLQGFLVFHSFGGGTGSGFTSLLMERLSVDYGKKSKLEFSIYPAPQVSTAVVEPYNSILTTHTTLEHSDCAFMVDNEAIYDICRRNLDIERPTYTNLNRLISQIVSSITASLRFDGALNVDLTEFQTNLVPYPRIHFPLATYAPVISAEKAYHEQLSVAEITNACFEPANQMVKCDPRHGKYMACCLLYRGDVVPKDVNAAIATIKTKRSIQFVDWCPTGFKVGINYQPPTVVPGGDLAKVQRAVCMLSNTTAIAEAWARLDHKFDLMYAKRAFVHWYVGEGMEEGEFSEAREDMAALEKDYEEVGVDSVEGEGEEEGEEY

Turning to `COc1ccc(/C=C\c2cc(OC)c(OC)c(OC)c2)cc1O` [CS-A4, Combretastatin A-4, reference compound], the IC50 came to 2.3 ± 0.4 nM with NCI/ADR-RES (Table 1, read-out: NCl/ADR-RES IC50 (nM) ± SD); 2.3 ± 0.4 nM in the test with NCI/ADR-RES (Table 2, read-out: NCI/ADR-RES IC50 (nM) ± SD); 3.5 ± 0.7 nM with OVCAR-8 (Table 1); 3.5 ± 0.7 nM in the test with OVCAR-8 (Table 2).
The term EC50 denotes the concentration that produces a half-maximal response. For the compound `COc1ccc(N(C)c2nc(Cl)nc3cnn(C)c23)cc1` [Compound 4, 5-chloro-N-(4-methoxyphenyl)-N,1-dimethyl-1H-pyrazolo[4,3-d]pyrimidin-7-amine], the IC50 is 5 nM in the test with NCI/ADR-RES (setting [1]); 5 nM in the test with NCI/ADR-RES (setting [2]); 9 ± 0.7 nM in the test with OVCAR-8 (Homo sapiens, Table 1); 22.7 ± 1.13 nM in the test on MIA PaCa-2 (Homo sapiens). Further, the values for the EC50 with MCF-7-TUBB3 β3-tubulin, in the test on MCF-7 WT and in the test on MCF-7/TAX Pgp were 3.3 ± 0.4 nM, 2 ± 0.3 nM and 15.1 ± 2 nM, respectively. In the test with MCF-7-TUBB3 β3-tubulin (MCF-7-TUBB3 vs MCF-7 WT), the “RESISTANCE RATIO β3-tubulin/WT” value was found to be 1.1. Also, the “RESISTANCE RATIO Pgp/WT” value with MCF-7/TAX Pgp (MCF-7/TAX vs MCF-7 WT) came to 3.8.
Take `CSc1ccc(N(C)c2nc(Cl)nc3cnn(C)c23)cc1` [Compound 5, 5-chloro-N,1-dimethyl-N-(4-(methylthio)phenyl)-1H-pyrazolo[4,3-d]pyrimidin-7-amine]: the IC50 with NCI/ADR-RES (setting [1]) stood at 17 ± 3 nM; in the test with NCI/ADR-RES (setting [2]), 17 ± 3 nM; in the test with OVCAR-8 (Homo sapiens, Table 1), 31 ± 2 nM; in the test on MIA PaCa-2 (Homo sapiens), 20.9 ± 0.651 nM.
With `COc1ccc2c(c1)CCCN2c1nc(Cl)nc2cnn(C)c12` [Compound 6, 1-(5-chloro-1-methyl-1H-pyrazolo[4,3-d]pyrimidin-7-yl)-6-methoxy-1,2,3,4-tetrahydroquinoline], the IC50 in the test on NCI/ADR-RES (setting [1]) was 8 ± 0.7 nM; in the test on NCI/ADR-RES (setting [2]), 8 ± 0.7 nM; with OVCAR-8 (Homo sapiens, Table 1), 17 ± 2 nM; in the test with MIA PaCa-2 (Homo sapiens), 48 ± 2.77 nM.
For `COc1ccc(N(C)c2nc(Cl)nc3cnn(C)c23)cc1F` [Compound 6d7, 5-chloro-N-(3-fluoro-4-methoxyphenyl)-N,1-dimethyl-1H-pyrazolo[4,3-d]pyrimidin-7-amine], the IC50 with NCI/ADR-RES (setting [2]) was found to be 7 ± 3 nM; with OVCAR-8 (Homo sapiens, Table 2) it was 9 ± 1 nM. The EC50 is 2.6 ± 0.4 nM in the test on MCF-7-TUBB3 β3-tubulin, 1.7 ± 0.2 nM with MCF-7 WT and 8.1 ± 0.2 nM with MCF-7/TAX Pgp. In addition, the “RESISTANCE RATIO β3-tubulin/WT” value in the test on MCF-7-TUBB3 β3-tubulin (MCF-7-TUBB3 vs MCF-7 WT) turned out to be 1.6. In addition, the “RESISTANCE RATIO Pgp/WT” value in the test on MCF-7/TAX Pgp (MCF-7/TAX vs MCF-7 WT) is given as 4.8.
Turning to `COc1cccc2cc(N(C)c3nc(Cl)nc4cnn(C)c34)ccc12` [Compound 7, 5-chloro-N-(5-methoxynaphthalen-2-yl)-N,1-dimethyl-1H-pyrazolo[4,3-d]pyrimidin-7-amine], the IC50 with NCI/ADR-RES (setting [1]) was 11 ± 0.7 nM; in the test with NCI/ADR-RES (setting [2]) it was 11 ± 0.7 nM; with OVCAR-8 (Homo sapiens, Table 1), 14 ± 3 nM. Also, the EC50 in the test with MCF-7-TUBB3 β3-tubulin is 16.8 ± 1.5 nM; in the test on MCF-7 WT it was 35.2 ± 4.7 nM; in the test with MCF-7/TAX Pgp, 43 ± 7.2 nM. The “RESISTANCE RATIO β3-tubulin/WT” value in the test with MCF-7-TUBB3 β3-tubulin (MCF-7-TUBB3 vs MCF-7 WT) was 0.5. In the test with MCF-7/TAX Pgp (MCF-7/TAX vs MCF-7 WT), the “RESISTANCE RATIO Pgp/WT” value was 1.2.
Consider `CCOc1ccc(N(C)c2nc(Cl)nc3cnn(C)c23)cc1` [Compound 8, 5-chloro-N-(4-ethoxyphenyl)-N,1-dimethyl-1H-pyrazolo[4,3-d]pyrimidin-7-amine], for which the IC50 in the test with NCI/ADR-RES (setting [1]) amounted to 4 ± 1 nM; in the test with NCI/ADR-RES (setting [2]) it was 4 ± 1 nM; in the test with OVCAR-8 (Homo sapiens, Table 1) it was 2 ± 1 nM. The concentration giving a half-maximal response (EC50) with MCF-7-TUBB3 β3-tubulin was found to be 9.7 ± 1 nM; in the test with MCF-7 WT, 7.7 ± 0.7 nM; in the test on MCF-7/TAX Pgp, 31.3 ± 3.5 nM. Besides, the “RESISTANCE RATIO β3-tubulin/WT” value with MCF-7-TUBB3 β3-tubulin (MCF-7-TUBB3 vs MCF-7 WT) was 1.3. Further, the “fold improvement of OVCAR-8 cell line activity” value in the test with OVCAR-8 (over compound 4) is reported as “around 4 fold”. The “RESISTANCE RATIO Pgp/WT” value with MCF-7/TAX Pgp (MCF-7/TAX vs MCF-7 WT) turned out to be 4.0.
For the compound `CC(C)Oc1ccc(N(C)c2nc(Cl)nc3cnn(C)c23)cc1` [Compound 9, 5-chloro-N-(4-isopropoxyphenyl)-N,1-dimethyl-1H-pyrazolo[4,3-d]pyrimidin-7-amine], the IC50 in the test with NCI/ADR-RES (setting [1]) amounted to 44 ± 8 nM; with NCI/ADR-RES (setting [2]), 44 ± 8 nM; in the test with OVCAR-8 (Homo sapiens, Table 1) it was 49 ± 10 nM.
Regarding `CN(c1ccc(OC(F)(F)F)cc1)c1nc(Cl)nc2cnn(C)c12` [Compound 10, 5-chloro-N,1-dimethyl-N-(4-(trifluoromethoxy)phenyl)-1H-pyrazolo[4,3-d]pyrimidin-7-amine], the IC50 in the test with NCI/ADR-RES (setting [1]) was found to be 730 ± 100 nM; in the test with NCI/ADR-RES (setting [2]), 730 ± 100 nM; in the test with OVCAR-8 (Homo sapiens, Table 1) it was 880 ± 40 nM.
For the compound `COc1ccc(Nc2nc(Cl)nc3cnn(C)c23)cc1` [Compound 11, 5-chloro-N-(4-methoxyphenyl)-1-methyl-1H-pyrazolo[4,3-d]pyrimidin-7-amine], the “activity in NCI/ADR-RES cell line” value in the test with NCI/ADR-RES is “not active”. Besides, the IC50 with NCI/ADR-RES (setting [1]) is greater than 5000 nM; in the test on OVCAR-8 (Homo sapiens, Table 1), greater than 5000 nM. In addition, in the test with OVCAR-8, the “activity in OVCAR-8 cell line” value is given as “not active”. Besides, at tubulin, the “colchicine inhibition” value is “did not show colchicine inhibition”.
As for `Nc1ccn([C@@H]2O[C@H](CO)[C@@H](O)C2(F)F)c(=O)n1` [GEM, reference compound], the IC50 with MIA PaCa-2 amounted to 297 nM.
On the same count and under the same terms, the value for `Nc1nc2[nH]cc(CCc3ccc(C(=O)N[C@@H](CCC(=O)O)C(=O)O)cc3)c2c(=O)[nH]1` [PMX, reference compound] was 16.1 ± 1.4 nM.
As to `CC(=O)O[C@H]1C(=O)[C@@]2(C)[C@H]([C@H](OC(=O)c3ccccc3)[C@]3(O)C[C@H](OC(=O)[C@H](O)[C@@H](NC(=O)c4ccccc4)c4ccccc4)C(C)=C1C3(C)C)[C@]1(OC(C)=O)CO[C@@H]1C[C@@H]2O` [Paclitaxel, reference compound], the IC50 in the test with NCI/ADR-RES (setting [1]) was greater than 5000 nM; in the test with NCI/ADR-RES (setting [2]), greater than 5000 nM; in the test on OVCAR-8 (Homo sapiens, Table 1), 7 ± 2 nM. Moreover, the half-maximal effective concentration (EC50) was determined as 2070 nM with MCF-7-TUBB3 β3-tubulin, 194 nM in the test with MCF-7 WT and 3220 nM in the test with MCF-7/TAX Pgp. For the same compound, in the test with MCF-7-TUBB3 β3-tubulin (MCF-7-TUBB3 vs MCF-7 WT), the “[…] β3-tubulin/WT” value came to 10.6. Besides, the “[…] Pgp/WT” value in the test with MCF-7/TAX Pgp (MCF-7/TAX vs MCF-7 WT) was 16.6.
